Results: patent US20150218172A1, “Pyrrolo[2,3-D]Pyrimidine Tropomyosin-Related Kinase Inhibitors” (PFIZER LIMITED, priority 2012, published 2015)
pIC50: −log10 of the molar value.

molecular target: T1, TrkA (Homo sapiens, UniProt P04629); experiment: Isolated TRK enzyme assay (HTRF KinEASE-TK kit), PV3144 TrkA enzyme assay; format: biochemical; details: PV3144 TrkA enzyme assay, recombinant His-tagged cytoplasmic domain aa 441-796, 4 nM enzyme, 40 uM ATP; arithmetic mean where more than one reading; read-out: Trka enzyme (IC50)
T1 construct: aa 441-796; His; purchased Invitrogen PV3144
T1 sequence (P04629 441-796): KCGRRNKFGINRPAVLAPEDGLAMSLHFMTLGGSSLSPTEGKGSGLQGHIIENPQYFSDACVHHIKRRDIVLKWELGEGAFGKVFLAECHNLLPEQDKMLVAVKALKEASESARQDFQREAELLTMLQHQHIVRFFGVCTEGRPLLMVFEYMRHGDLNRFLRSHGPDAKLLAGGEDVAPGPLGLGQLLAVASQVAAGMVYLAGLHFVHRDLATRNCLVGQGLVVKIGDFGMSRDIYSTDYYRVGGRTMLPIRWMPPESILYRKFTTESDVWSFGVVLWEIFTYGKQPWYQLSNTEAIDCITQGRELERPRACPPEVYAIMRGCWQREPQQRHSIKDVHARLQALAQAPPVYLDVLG
Summary of the method: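 Recombinant His-tagged cytoplasmic domain of human TrkA, preactivated with ATP for 20 min, then 20 min with compound before biotinylated TK substrate (1 uM final) at room temperature. HTRF read at 665/620 nm; % inhibition normalised to reference-compound and DMSO controls, IC50 from sigmoid fit, mean of replicates.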

pIC50	SMILES
7.60	CC(C)(C)n1cc(C(=O)c2ccnc(NC(=O)Cc3ccc(C#N)cc3)c2)c2cncnc21 [Example 173, N-{4-[(7-tert-butyl-7H-pyrrolo[2,3-d]pyrimidin-5-yl)carbonyl}pyridin-2-yl]-2-(4-cyanophenyl)acetamide]
7.08	N#Cc1ccc(CC(=O)Nc2cc(C(=O)c3cn([C@H]4CC[C@H](O)CC4)c4ncncc34)ccn2)cc1 [Example 2, 2-(4-cyanophenyl)-N-(4-{[7-(trans-4-hydroxycyclohexyl)-7H-pyrrolo[2,3-d]pyrimidin-5-yl]carbonyl}pyridine-2-yl)acetamide]
6.50	Cc1cc(C(=O)c2cn(C(C)C)c3ncncc23)cc(NC(=O)Cc2ccc(C#N)cc2)n1 [Example 76, 2-(4-cyanophenyl)-N-(6-methyl-4-{[7-(propan-2-yl)-7H-pyrrolo[2,3-d]pyrimidin-5-yl]carbonyl}pyridin-2-yl)acetamide]
7.84	CC(C)n1cc(C(=O)c2ccnc(NC(=O)Cc3cccc(Cl)c3)c2)c2cncnc21 [Example 155, 2-(3-chlorophenyl)-N-(4-{[7-(propan-2-yl)-7H-pyrrolo[2,3-d]pyrimidin-5-yl]carbonyl}pyridin-2-yl)acetamide]
7.04	CC(CO)(CO)n1cc(C(=O)c2cc(NC(=O)Cc3cccc(C(F)(F)F)c3)ccn2)c2cncnc21 [Example 104, N-(2-{[7-(1,3-dihydroxy-2-methylpropan-2-yl)-7H-pyrrolo[2,3-d]pyrimidin-5-yl]carbonyl}pyridin-4-yl)-2-[3-(trifluoromethyl)phenyl]acetamide]
7.63	CC(C)n1cc(C(=O)c2cc(NC(=O)Cc3ccc(Cl)cc3)ncn2)c2cncnc21 [Example 65, 2-(4-chlorophenyl)-N-(6-{[7-(propan-2-yl)-7H-pyrrolo[2,3-d]pyrimidin-5-yl]carbonyl}pyrimidin-4-yl)acetamide]
7.82	CC(C)n1cc(C(=O)c2ccnc(NC(=O)Cc3ccc(C(F)(F)F)c(F)c3)c2)c2cncnc21 [Example 124, 2-[3-fluoro-4-(trifluoromethyl)phenyl]-N-(4-{[7-(propan-2-yl)-7H-pyrrolo[2,3-d]pyrimidin-5-yl]carbonyl}pyridin-2-yl)acetamide]
7.50	CC(C)c1cn(CC(=O)Nc2cc(C(=O)c3cn(C(C)C)c4ncncc34)ccn2)nn1 [Example 164, N-(4-{[7-(propan-2-yl)-7H-pyrrolo[2,3-d]pyrimidin-5-yl]carbonyl}pyridin-2-yl)-2-[4-(propan-2-yl)-1H-1,2,3-triazol-1-yl]acetamide]
6.77	CC(C)n1cc(C(=O)c2ccnc(NC(=O)Cc3ccccc3)c2)c2cncnc21 [Example 149, 2-phenyl-N-(4-{[7-(propan-2-yl)-7H-pyrrolo[2,3-d]pyrimidin-5-yl]carbonyl}pyridin-2-yl)acetamide]
7.28	CC(C)(C)n1cc(C(=O)c2cc(NC(=O)Cn3cc(C4CC4)nn3)ccn2)c2cncnc21 [Example 36, N-[2-(7-tert-Butyl-7H-pyrrolo[2,3-d]pyrimidine-5-carbonyl)-pyridin-4-yl]-2-(4-cyclopropyl-[1,2,3]triazol-1-yl)-acetamide]
7.79	O=C(Cc1ccc(C(F)(F)F)cc1)Nc1cc(C(=O)c2cn(CCO)c3ncncc23)ccn1 [Example 141, N-(4-{[7-(2-hydroxyethyl)-7H-pyrrolo[2,3-d]pyrimidin-5-yl]carbonyl}pyridin-2-yl)-2-[4-(trifluoromethyl)phenyl]acetamide]
6.83	C[C@@H](CO)n1cc(C(=O)c2cc(NC(=O)Cc3ccc(Cl)cc3)ccn2)c2cncnc21 [Example 16, 2-(4-chlorophenyl)-N-[2-({7-[(2S)-1-hydroxypropan-2-yl]-7H-pyrrolo[2,3-d]pyrimidin-5-yl}carbonyl)pyridin-4-yl]acetamide]
7.06	Cc1ccnn1CC(=O)Nc1cc(C(=O)c2cn(C(C)C)c3ncncc23)ccn1 [Example 160, 2-(5-methyl-1H-pyrazol-1-yl)-N-(4-{[7-(propan-2-yl)-7H-pyrrolo[2,3-d]pyrimidin-5-yl]carbonyl}pyridin-2-yl)acetamide]
7.94	CC(C)(CO)n1cc(C(=O)c2cc(NC(=O)Cc3ccc(Cl)cn3)ccn2)c2cncnc21 [Example 58, 2-(5-chloropyridin-2-yl)-N-(2-{[7-(1-hydroxy-2-methylpropan-2-yl)-7H-pyrrolo[2,3-d]pyrimidin-5-yl]carbonyl}pyridin-4-yl)acetamide]
7.13	CC(C)c1cn(CC(=O)Nc2ccnc(C(=O)c3cn([C@@H](C)CO)c4ncncc34)c2)nn1 [Example 29, N-[2-({7-[(2S)-1-hydroxypropan-2-yl]-7H-pyrrolo[2,3-d]pyrimidin-5-yl}carbonyl)pyridin-4-yl]-2-[4-(propan-2-yl)-1H-1,2,3-triazol-1-yl]acetamide]
7.88	Cc1cc(C(F)(F)F)nn1CC(=O)Nc1cc(C(=O)c2cn(C(C)(C)CO)c3nc(N)ncc23)ccc1C#N [Example 10, N-(5-{[2-amino-7-(1-hydroxy-2-methylpropan-2-yl)-7H-pyrrolo[2,3-d]pyrimidin-5-yl]carbonyl}-2-cyanophenyl)-2-[5-methyl-3-(trifluoromethyl)-1H-pyrazol-1-yl]acetamide]

pIC50	SMILES
7.14	CC(C)(CO)n1cc(C(=O)c2cc(NC(=O)Cc3ccc(Cl)cn3)ccn2)c2cnc(N)nc21 [Example 52, N-(2-{[2-amino-7-(1-hydroxy-2-methylpropan-2-yl)-7H-pyrrolo[2,3-d]pyrimidin-5-yl]carbonyl}pyridin-4-yl)-2-(5-chloropyridin-2-yl)acetamide]
7.46	CC(C)n1cc(C(=O)c2cc(NC(=O)Cc3ccc(Cl)cn3)ccn2)c2cnc(N)nc21 [Example 86]
7.34	CC(C)(CO)n1cc(C(=O)c2cc(NC(=O)Cn3cc(C(F)(F)F)nn3)ccn2)c2cncnc21 [Example 54, N-(2-{[7-(1-hydroxy-2-methylpropan-2-yl)-7H-pyrrolo[2,3-d]pyrimidin-5-yl]carbonyl}pyridin-4-yl)-2-[4-(trifluoromethyl)-1H-1,2,3-triazol-1-yl]acetamide]
7.27	CC(C)n1cc(C(=O)c2ccnc(NC(=O)Cc3ccccc3Cl)c2)c2cncnc21 [Example 159, 2-(2-chlorophenyl)-N-(4-{[7-(propan-2-yl)-7H-pyrrolo[2,3-d]pyrimidin-5-yl]carbonyl}pyridin-2-yl)acetamide]
7.28	CC1(n2cc(C(=O)c3cc(NC(=O)Cc4cccc(C(F)(F)F)c4)ccn3)c3cncnc32)COC1 [Example 166, N-(2-{[7-(3-methyloxetan-3-yl)-7H-pyrrolo[2,3-d]pyrimidin-5-yl]carbonyl}pyridin-4-yl)-2-[3-(trifluoromethyl)phenyl]acetamide]
7.79	Cc1cc(C(F)(F)F)nn1CC(=O)Nc1cc(C(=O)c2cn(C(C)C)c3ncncc23)ccn1 [Example 147, 2-[5-methyl-3-(trifluoromethyl)-1H-pyrazol-1-yl]-N-(4-{[7-(propan-2-yl)-7H-pyrrolo[2,3-d]pyrimidin-5-yl]carbonyl}pyridin-2-yl)acetamide]
7.24	CC(C)n1cc(C(=O)c2ccnc(NC(=O)Cc3ccc(F)cn3)c2)c2cncnc21 [Example 73, 2-(5-fluoropyridin-2-yl)-N-(4-{[7-(propan-2-yl)-7H-pyrrolo[2,3-d]pyrimidin-5-yl]carbonyl}pyridin-2-yl)acetamide]
7.10	CC(C)(CO)n1cc(C(=O)c2cc(NC(=O)Cc3ccc(C#N)cc3)ccn2)c2cnc(N)nc21 [Example 51, N-(2-{[2-amino-7-(1-hydroxy-2-methylpropan-2-yl)-7H-pyrrolo[2,3-d]pyrimidin-5-yl]carbonyl}pyridin-4-yl)-2-(4-cyanophenyl)acetamide]
6.39	N#Cc1ccc(CC(=O)Nc2cc(C(=O)c3cn(C4CC4)c4ncncc34)ccn2)cc1 [Example 175, 2-(4-cyanophenyl)-N-{4-[(7-cyclopropyl-7H-pyrrolo[2,3-d]pyrimidin-5-yl)carbonyl]pyridin-2-yl}acetamide]
8.33	Cc1cc(C(F)(F)F)nn1CC(=O)Nc1cc(C(=O)c2cn(C(C)C)c3nc(N)ncc23)ccn1 [Example 46, N-(4-{[2-amino-7-(propan-2-yl)-7H-pyrrolo[2,3-d]pyrimidin-5-yl]carbonyl}pyridin-2-yl)-2-[5-methyl-3-(trifluoromethyl)-1H-pyrazol-1-yl]acetamide]
8.26	Cc1cc(C(F)(F)F)nn1CC(=O)Nc1ccnc(C(=O)c2cn(C(C)C)c3ncncc23)c1 [Example 69, 2-[5-methyl-3-(trifluoromethyl)-1H-pyrazol-1-yl]-N-(2-{[7-(propan-2-yl)-7H-pyrrolo[2,3-d]pyrimidin-5-yl]carbonyl}pyridin-4-yl)acetamide]
8.35	CC(C)n1cc(C(=O)c2ccnc(NC(=O)Cc3ccc(Cl)c(Cl)c3)c2)c2cncnc21 [Example 66, 2-(3,4-Dichlorophenyl)-N-{4-[(7-isopropyl-7H-pyrrolo[2,3-d]pyrimidin-5-yl)carbonyl]pyridin-2-yl}acetamide]
6.18	CC(CO)(CO)n1cc(C(=O)c2cc(NC(=O)Cc3ccc(Cl)cn3)ccn2)c2cncnc21 [Example 106, 2-(5-chloropyridin-2-yl)-N-(2-{[7-(1,3-dihydroxy-2-methylpropan-2-yl)-7H-pyrrolo[2,3-d]pyrimidin-5-yl]carbonyl}pyridin-4-yl)acetamide]
8.01	CC(C)(CO)n1cc(C(=O)c2cc(NC(=O)Cc3cccc(C(F)(F)F)c3)ccn2)c2cnc(N)nc21 [Example 49, N-(2-{[2-amino-7-(1-hydroxy-2-methylpropan-2-yl)-7H-pyrrolo[2,3-d]pyrimidin-5-yl]carbonyl}pyridin-4-yl)-2-[3-(trifluoromethyl)phenyl]acetamide]
7.60	CC(C)(CO)n1cc(C(=O)c2cc(NC(=O)Cn3ccc(C4CC4)n3)ccn2)c2cncnc21 [Example 61, 2-(3-cyclopropyl-1H-pyrazol-1-yl)-N-(2-{[7-(1-hydroxy-2-methylpropan-2-yl)-7H-pyrrolo[2,3-d]pyrimidin-5-yl]carbonyl}pyridin-4-yl)acetamide]
